Test [1] concerns the target T1, Probable nicotinate-nucleotide adenylyltransferase (Staphylococcus aureus (strain N315), UniProt P65502). It is filed as functional, Staphylococcus aureus subsp. aureus N315.
Test [2] addresses T1, Probable nicotinate-nucleotide adenylyltransferase. Type of test: functional, Staphylococcus aureus subsp. aureus N315. Conditions: read-out: IC50_Mean.
In test [3] the target is Nuclear receptor subfamily 5 group A member 2 (Homo sapiens, UniProt O00482). Type of test: functional, cell-based.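 Note: HEK293T cells transfected with LRH-1 and a StAR promoter luciferase reporter; potency for inhibitors that lower LRH-1 driven reporter light.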
Chain of Nuclear receptor subfamily 5 group A member 2 (O00482 whole entry): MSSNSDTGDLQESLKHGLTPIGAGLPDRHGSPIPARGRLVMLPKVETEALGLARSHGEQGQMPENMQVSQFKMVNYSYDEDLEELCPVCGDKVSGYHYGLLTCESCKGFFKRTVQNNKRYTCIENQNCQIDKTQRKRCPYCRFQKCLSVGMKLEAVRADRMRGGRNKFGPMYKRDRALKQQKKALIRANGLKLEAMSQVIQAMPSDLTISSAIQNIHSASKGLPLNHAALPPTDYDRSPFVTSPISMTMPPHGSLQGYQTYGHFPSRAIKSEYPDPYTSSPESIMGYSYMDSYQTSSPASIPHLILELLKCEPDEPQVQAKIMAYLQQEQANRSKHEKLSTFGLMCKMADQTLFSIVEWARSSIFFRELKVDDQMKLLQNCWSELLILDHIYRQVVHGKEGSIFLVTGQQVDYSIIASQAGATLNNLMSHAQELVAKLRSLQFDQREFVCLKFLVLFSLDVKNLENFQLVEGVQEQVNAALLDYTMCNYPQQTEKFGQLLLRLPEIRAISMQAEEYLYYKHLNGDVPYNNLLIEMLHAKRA
For another test, the target named is Steroidogenic factor 1 (Homo sapiens, UniProt Q13285). The test is described as follows: Counterscreen for inverse agonists of the liver receptor homolog-1 (LRH-1; NR5A2): Luminescence-based cell-based high throughput dose response assay to identify inverse agonists of the Steroidogenic Factor 1 Nuclear Receptor (SF1; NR5A1). It is filed as functional.
Chain of Steroidogenic factor 1 (Q13285 whole entry): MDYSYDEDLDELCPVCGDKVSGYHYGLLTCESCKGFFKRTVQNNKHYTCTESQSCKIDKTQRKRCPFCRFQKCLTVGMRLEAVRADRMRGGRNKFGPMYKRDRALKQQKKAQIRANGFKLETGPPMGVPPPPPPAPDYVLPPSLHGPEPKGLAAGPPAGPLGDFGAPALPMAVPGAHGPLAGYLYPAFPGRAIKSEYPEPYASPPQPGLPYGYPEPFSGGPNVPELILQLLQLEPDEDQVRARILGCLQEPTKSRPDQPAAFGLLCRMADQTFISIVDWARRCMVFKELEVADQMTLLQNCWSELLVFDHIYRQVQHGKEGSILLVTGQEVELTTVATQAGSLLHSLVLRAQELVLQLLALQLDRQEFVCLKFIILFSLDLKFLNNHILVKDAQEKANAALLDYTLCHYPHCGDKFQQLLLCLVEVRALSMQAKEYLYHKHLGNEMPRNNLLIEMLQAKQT
Test [4] in a line: StAR promoter reporter inhibition counter-screen, dose response, counter-screen for LRH-1 inverse agonist project, cell-based, luminescence, luciferase reporter (AID 651969). Type of test: functional.
Test [5] deals with T2, Low molecular weight phosphotyrosine protein phosphatase (Homo sapiens, UniProt P24666).
T2 sequence (P24666 whole entry): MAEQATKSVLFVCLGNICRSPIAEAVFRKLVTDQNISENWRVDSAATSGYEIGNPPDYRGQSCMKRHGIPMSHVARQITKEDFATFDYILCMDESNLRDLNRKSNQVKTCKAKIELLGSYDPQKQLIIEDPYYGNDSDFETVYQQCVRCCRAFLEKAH
Type of test: functional. Conditions: read-out: IC50_Mean.

Test [6] addresses T2, Low molecular weight phosphotyrosine protein phosphatase. Type of test: functional. The following applies: read-out: IC50_Mean. This is another data set of the same source.
In test [7] the target is Photoreceptor-specific nuclear receptor (Homo sapiens, UniProt Q9Y5X4). Type of test: functional, cell-based.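 Note: CHO-S cells with Gal4-NCOR and VP16-NR2E3 two-hybrid luciferase reporter.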
Chain of Photoreceptor-specific nuclear receptor (Q9Y5X4 whole entry, the tested form may be a part): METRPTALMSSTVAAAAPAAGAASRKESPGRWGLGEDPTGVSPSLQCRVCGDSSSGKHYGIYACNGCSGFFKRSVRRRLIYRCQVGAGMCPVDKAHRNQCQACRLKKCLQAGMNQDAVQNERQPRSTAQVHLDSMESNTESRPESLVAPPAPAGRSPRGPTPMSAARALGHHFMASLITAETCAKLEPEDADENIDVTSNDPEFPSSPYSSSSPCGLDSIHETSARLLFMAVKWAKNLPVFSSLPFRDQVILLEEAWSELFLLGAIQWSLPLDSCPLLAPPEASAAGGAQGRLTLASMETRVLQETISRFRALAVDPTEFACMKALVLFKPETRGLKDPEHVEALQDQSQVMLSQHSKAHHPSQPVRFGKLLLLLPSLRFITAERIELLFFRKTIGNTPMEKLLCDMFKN
Test [8] addresses T3, Short transient receptor potential channel 4 (Mus musculus, UniProt Q9QUQ5).
T3 sequence (Q9QUQ5 whole entry): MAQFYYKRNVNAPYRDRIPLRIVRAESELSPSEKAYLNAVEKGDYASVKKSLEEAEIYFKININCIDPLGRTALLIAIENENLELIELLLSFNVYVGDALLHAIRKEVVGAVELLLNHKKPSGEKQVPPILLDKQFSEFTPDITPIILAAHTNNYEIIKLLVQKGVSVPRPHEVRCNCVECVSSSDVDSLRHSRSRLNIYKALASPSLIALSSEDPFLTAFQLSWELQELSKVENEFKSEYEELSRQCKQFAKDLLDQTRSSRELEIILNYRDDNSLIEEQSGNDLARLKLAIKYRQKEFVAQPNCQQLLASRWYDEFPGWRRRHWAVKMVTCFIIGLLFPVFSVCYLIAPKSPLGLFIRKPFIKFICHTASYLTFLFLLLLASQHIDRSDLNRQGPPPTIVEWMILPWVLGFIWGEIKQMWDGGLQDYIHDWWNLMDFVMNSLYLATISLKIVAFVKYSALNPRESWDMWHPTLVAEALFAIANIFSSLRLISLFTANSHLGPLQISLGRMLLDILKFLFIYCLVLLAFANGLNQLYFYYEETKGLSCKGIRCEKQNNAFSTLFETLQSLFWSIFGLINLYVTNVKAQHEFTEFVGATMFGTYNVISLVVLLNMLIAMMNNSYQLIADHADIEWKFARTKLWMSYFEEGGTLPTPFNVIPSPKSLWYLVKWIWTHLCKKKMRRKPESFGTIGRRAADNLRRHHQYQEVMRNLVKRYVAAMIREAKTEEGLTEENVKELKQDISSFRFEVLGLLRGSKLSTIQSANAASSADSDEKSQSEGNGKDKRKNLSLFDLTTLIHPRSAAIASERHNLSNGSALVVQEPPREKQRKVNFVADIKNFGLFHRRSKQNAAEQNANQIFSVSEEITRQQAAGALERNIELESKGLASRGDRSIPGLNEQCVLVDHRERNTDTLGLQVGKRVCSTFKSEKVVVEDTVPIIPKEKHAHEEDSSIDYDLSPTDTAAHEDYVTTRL
The test is described as follows: mouse TRPC4 channel inhibitors, dose response, cell-based, HEK293 TRPC4/mu-opioid, Fluo-4 calcium (AID 434942).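 Note: potency of inhibitors blocking the TRPC4 calcium response.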 Type of test: functional.

The target of test [9] is T4, Corticotropin-releasing factor receptor 2/Corticotropin-releasing factor-binding protein (Homo sapiens, UniProt P24387+Q13324).
T4 sequence (Q13324 whole entry): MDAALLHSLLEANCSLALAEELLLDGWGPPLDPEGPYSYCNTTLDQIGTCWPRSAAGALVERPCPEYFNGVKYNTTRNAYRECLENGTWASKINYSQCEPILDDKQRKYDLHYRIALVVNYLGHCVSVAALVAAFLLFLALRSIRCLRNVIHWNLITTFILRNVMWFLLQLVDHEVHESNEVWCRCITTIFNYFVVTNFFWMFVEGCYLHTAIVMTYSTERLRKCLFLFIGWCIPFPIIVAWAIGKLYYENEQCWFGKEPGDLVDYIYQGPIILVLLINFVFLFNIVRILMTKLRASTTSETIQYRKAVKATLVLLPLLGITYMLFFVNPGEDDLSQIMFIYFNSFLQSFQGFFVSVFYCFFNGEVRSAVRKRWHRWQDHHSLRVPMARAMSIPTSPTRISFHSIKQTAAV
T4 sequence (P24387 whole entry): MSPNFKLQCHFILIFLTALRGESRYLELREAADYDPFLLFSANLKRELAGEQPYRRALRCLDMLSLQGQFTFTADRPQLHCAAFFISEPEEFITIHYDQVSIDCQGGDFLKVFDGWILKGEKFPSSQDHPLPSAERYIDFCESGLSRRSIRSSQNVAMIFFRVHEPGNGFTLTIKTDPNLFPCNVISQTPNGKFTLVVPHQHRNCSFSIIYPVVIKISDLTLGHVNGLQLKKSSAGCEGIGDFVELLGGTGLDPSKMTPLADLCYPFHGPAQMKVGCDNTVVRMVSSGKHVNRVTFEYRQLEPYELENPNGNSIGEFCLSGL
The test is described as follows: Dose Response confirmation of uHTS hits for small molecule antagonists of the CRF-binding protein and CRF-R2 receptor complex. Type of test: functional. Conditions: read-out: IC50_Mean.

Test [10] deals with T4, Corticotropin-releasing factor receptor 2/Corticotropin-releasing factor-binding protein. Put plainly: activators of CRF receptor 2 with binding protein – uHTS hits, confirmation (AID 602473). Type of test: functional. Conditions: read-out: EC50_Mean.
Test [11] is described as follows: CRF-BP/CRF-R2 complex antagonists, dose response, cell-based, uHTS hits, 384-well (AID 651639). Type of test: functional, Homo sapiens. Conditions: read-out: IC50_Mean.
Test [12] in a line: HEp-2 cell cytotoxicity, dose response, cytotoxicity control for RSV inhibitor project, HTS (AID 2410). Type of test: functional. The following applies: human respiratory syncytial virus.
The target of test [13] is T5, Methionyl-tRNA synthetase, putative (Trypanosoma brucei brucei, UniProt Q38C91).
T5 sequence (Q38C91 whole entry): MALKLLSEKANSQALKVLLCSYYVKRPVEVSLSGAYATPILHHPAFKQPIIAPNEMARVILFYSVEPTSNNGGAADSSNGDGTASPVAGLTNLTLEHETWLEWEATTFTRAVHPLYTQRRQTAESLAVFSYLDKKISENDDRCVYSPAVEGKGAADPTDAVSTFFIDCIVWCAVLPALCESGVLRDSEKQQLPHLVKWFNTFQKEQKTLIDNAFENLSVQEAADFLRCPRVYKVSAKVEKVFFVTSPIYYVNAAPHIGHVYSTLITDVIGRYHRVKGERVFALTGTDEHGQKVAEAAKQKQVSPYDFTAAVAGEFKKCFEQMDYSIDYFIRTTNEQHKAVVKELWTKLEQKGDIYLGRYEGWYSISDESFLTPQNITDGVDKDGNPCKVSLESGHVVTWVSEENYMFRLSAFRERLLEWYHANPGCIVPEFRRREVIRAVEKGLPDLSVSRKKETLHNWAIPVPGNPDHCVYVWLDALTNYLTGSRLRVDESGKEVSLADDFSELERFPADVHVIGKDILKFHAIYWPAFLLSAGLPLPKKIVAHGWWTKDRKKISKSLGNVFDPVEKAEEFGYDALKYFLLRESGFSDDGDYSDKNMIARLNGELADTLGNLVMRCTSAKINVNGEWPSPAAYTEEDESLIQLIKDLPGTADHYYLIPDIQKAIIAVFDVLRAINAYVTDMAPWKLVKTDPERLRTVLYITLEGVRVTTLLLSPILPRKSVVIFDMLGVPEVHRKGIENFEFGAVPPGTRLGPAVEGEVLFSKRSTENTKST
It is filed as functional, Trypanosoma brucei brucei strain 927/4 GUTat10.1.

A short description of test [14]: Counterscreen for inhibitors of Trypanosoma brucei methionyl tRNA synthetase (MetRS): Luminescence-based cell-based high throughput dose response assay to identify compounds that are cytotoxic to Jurkat human T lymphocyte cells. It is filed as functional.
Test [15] concerns the target T5, Methionyl-tRNA synthetase, putative. It is filed as functional, Trypanosoma brucei brucei strain 927/4 GUTat10.1. This is another data set of the same source.
For test [16], the target named is T6, ATP-dependent translocase ABCB1 (Homo sapiens, UniProt P08183). The test is described as follows: ABCG2 efflux pump inhibitor potency, dose response, Ig-MXP3 cells, JC-1, flow cytometry, set 2 (AID 504566).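 Note: flow cytometry median green fluorescence of retained JC-1 dye; potency of efflux pump inhibition measured as rising substrate retention.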 It is filed as functional. The following applies: read-out: EC50_MICROM_.
T6 sequence (P08183 whole entry): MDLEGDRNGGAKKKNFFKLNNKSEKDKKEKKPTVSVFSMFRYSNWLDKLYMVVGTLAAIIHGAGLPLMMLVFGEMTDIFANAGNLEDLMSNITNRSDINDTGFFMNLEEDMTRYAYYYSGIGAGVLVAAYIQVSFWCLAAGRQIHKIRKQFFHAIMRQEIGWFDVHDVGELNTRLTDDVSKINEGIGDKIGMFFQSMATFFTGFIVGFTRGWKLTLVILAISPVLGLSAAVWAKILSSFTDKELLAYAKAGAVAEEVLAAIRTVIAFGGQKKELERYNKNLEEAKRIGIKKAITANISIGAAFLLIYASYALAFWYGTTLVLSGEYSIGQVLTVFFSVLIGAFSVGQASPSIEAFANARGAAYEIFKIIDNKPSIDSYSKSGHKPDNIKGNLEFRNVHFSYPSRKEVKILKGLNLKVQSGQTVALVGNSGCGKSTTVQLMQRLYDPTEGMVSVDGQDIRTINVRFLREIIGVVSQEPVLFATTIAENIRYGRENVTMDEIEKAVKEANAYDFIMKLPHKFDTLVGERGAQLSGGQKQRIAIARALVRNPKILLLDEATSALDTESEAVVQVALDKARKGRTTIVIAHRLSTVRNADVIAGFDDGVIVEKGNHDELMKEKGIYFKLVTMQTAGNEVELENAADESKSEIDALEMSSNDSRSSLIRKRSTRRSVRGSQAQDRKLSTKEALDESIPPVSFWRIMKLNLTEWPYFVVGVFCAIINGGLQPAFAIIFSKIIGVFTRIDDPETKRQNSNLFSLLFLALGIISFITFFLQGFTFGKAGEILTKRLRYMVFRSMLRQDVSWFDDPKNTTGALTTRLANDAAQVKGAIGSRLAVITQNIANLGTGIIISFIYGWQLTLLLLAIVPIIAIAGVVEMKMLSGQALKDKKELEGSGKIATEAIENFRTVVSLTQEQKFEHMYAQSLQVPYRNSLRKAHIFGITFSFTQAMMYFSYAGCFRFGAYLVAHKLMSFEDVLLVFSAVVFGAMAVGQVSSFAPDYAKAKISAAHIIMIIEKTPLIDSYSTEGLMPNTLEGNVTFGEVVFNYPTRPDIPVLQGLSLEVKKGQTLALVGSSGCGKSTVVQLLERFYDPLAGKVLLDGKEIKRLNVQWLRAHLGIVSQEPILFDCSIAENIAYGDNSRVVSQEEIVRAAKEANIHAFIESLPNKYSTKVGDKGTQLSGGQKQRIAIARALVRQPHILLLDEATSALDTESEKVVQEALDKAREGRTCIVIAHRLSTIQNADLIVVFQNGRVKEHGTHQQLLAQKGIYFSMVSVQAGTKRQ
In test [17] the target is T6, ATP-dependent translocase ABCB1. Put plainly: ABCB1 efflux inhibitor potency, dose response, Jurkat-DNR cells, JC-1, flow cytometry, set 2 (AID 504569).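 Note: potency of pump inhibitors that raise cellular JC-1 green fluorescence up to the nicardipine level.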 It is filed as functional. The following applies: read-out: EC50_MICROM_.
Test [18] concerns the target Heat shock protein HSP 90-alpha (Homo sapiens, UniProt P07900). Type of test: functional, organism-based.
In test [19] the target is T7, Rac GTPase-activating protein 1 (Homo sapiens, UniProt Q9H0H5).
T7 sequence (Q9H0H5 whole entry): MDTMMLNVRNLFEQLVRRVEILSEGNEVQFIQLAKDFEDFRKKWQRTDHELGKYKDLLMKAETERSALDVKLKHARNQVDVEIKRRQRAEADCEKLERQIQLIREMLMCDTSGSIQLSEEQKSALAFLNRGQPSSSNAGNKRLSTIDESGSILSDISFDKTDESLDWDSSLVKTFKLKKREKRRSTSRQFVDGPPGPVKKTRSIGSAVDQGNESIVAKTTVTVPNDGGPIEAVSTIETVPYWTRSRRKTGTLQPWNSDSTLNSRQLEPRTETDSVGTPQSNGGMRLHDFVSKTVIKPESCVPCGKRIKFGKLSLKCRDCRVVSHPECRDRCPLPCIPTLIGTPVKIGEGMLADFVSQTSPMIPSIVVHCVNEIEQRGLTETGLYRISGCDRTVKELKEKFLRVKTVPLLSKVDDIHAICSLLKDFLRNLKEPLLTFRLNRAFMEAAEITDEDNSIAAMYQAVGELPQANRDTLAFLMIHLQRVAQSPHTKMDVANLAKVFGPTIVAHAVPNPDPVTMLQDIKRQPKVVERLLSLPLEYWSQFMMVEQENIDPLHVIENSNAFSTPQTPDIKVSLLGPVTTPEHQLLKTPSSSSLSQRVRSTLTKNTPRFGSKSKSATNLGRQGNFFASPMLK
The test is described as follows: MgcRacGAP GTPase-activating activity inhibitors, confirmation, biochemical, ADP Hunter fluorescence, primary and confirmatory (AID 624330). It is filed as functional.

Activity calls are given as the source filed them. A value given as a limit tells only on which side of the number the result lay.

T1 sequence (P65502 whole entry): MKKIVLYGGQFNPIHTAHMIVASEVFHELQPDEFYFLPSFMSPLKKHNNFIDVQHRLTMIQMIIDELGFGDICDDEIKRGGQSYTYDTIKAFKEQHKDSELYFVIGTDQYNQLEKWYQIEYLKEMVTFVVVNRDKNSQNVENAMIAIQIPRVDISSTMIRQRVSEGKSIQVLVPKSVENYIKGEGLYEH

With `Cc1ccc(-n2nc3c(c2NC(=O)/C=C\c2ccc4c(c2)OCO4)CSC3)cc1`, the IC50 in [1] is 6.06 µM (active); in test [2], 20.4 µM (active).
`CC(=O)Nc1ncc(Cc2cc(Cl)ccc2Cl)s1`: the results for the IC50 (in [3]; at Steroidogenic factor 1; in test [4]) were 1.33 µM (active), 2.14 µM (active) and 35.9 µM (inactive), respectively.
For the compound `CCC(C)Nc1nc(-c2ccc3c(c2)NC(=O)CO3)cs1` (stereo not drawn), the IC50 in [5] is 10.5 µM (active); in test [6] it was 63.3 µM (inactive).
Take `O=C(CSc1nncc(O)n1)Nc1cccc([N+](=O)[O-])c1`: the IC50 in [3] is 3.98 µM (active); at Steroidogenic factor 1 it was 3.98 µM (active); in [4], 13.7 µM (inactive).
With `O=S(=O)(NC1CCCC1)c1ccc(S(=O)(=O)N2CCc3ccccc32)cc1`, the IC50 in [7] is 2.47 µM (active).
Regarding `COC(=O)[C@H](CC(C)C)N1Cc2cc(OC)cc(OC)c2-c2ccccc2S1(=O)=O`, the values for the IC50 in [1] and in [2] were 23.5 µM (active) and 55.6 µM (active), respectively.
Turning to `COc1ccc(/C=C2\SC(=S)N(C(Cc3ccccc3)C(=O)O)C2=O)cc1` (stereo not drawn), the EC50 in test [8] is 4.73 µM (active); in [10], 34.8 µM (active). The values for the IC50 in test [9] and in [11] were 0.545 µM (active) and > 20 µM (inactive), respectively.
Consider `O=C(NCc1nc2ccccc2[nH]1)C1=C[C@H](c2csc3ccccc23)C[C@H](OCc2ccc(CO)cc2)O1`, for which the cytotoxic concentration (CC50) in test [12] was 41.1 µM (active). Further, the IC50 in [13] was 3.54 µM (active); in [14], 47.7 µM (inactive); in test [15], 1.58 µM (active).
Turning to `Cc1cccc(-c2nc(NCCCN3CCOCC3)c3ccccc3n2)c1`, the IC50 in test [5] is 22.6 µM (inactive); in test [6], 7.12 µM (active).
In the case of `COc1ccc(C(=O)N2CCN(c3cc(-c4ccccc4)nc4cc(-c5cccc(Cl)c5)nn34)CC2)cc1`, the EC50 in test [16] is 2.04 µM (active); in test [17], 3.04 µM (active).
For the compound `Cc1ccc(NC(=O)CNC(=O)c2cccc(C)c2)nc1`, in test [7], the IC50 was 3.75 µM (active).
Consider `Cc1cc(N2CCN(C(=O)c3ccco3)CC2)n2nc(C)c(-c3ccccc3)c2n1`, for which the concentration at half-maximal activity (AC50) in [18] is 7.93 µM (active). Further, the results for the EC50 in test [16] and in test [17] were 7.22 µM (active) and 3.25 µM (inactive), respectively.
Consider `COc1ccc(C)cc1NCc1cccc(OC)c1OC`, for which the values for the IC50 in test [9], in test [11] and in test [19] were 39.6 µM (active), > 20 µM (inactive) and 41.7 µM (active), respectively. Besides, in test [10], the EC50 is > 53 µM (inactive).

(Values after ChEMBL document CHEMBL1201862, “PubChem BioAssay data set” (2004).)
